According to patent US11051515B2, “3-acyl-benzamides and their use as herbicides” (Bayer Aktiengesellschaft, priority 2017, dated 2021):

Legend:
[1] = tested on: VIOTR; test: Post-emergence action against VIOTR; format: in vivo, Viola tricolor; settings: post-emergence, dosage 80 g/ha
Method in brief: (§1)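 Weeds grown in sandy loam in greenhouse, treated at one-leaf stage (2–3 weeks after sowing) with WP or EC formulations sprayed as aqueous suspension/emulsion at 600 to […] water with 0.2% wetting agent. Visual rating after about 3 weeks versus untreated controls, as % herbicidal action (100% = plants dead, 0% = like control).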

[2] = tested on: MATIN; test: Post-emergence action against MATIN; format: in vivo, Matricaria inodora; settings: post-emergence, dosage 80 g/ha, visual assessment about 3 weeks after treatment vs untreated controls
Method in brief: as §1

[3] = tested on: ABUTH; test: Pre-emergence action against ABUTH; format: in vivo, Abutilon theophrasti; settings: pre-emergence, dosage 320 g/ha, scored visually after 3 weeks vs untreated controls
Method in brief: (§2)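 Seeds sown in sandy loam in wood-fiber pots and covered with soil. Greenhouse growth; visual damage scored after 3 weeks versus untreated controls (100% = dead, 0% = like control).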

[4] = tested on: PHBPU; test: Pre-emergence action against PHBPU; format: in vivo, Pharbitis purpurea; settings: Dosage 320 g/ha, pre-emergence
Method in brief: as §2

[5] = tested on: VIOTR; test: Pre-emergence action against VIOTR; format: in vivo, Viola tricolor; settings: Dosage 320 g/ha, pre-emergence
Method in brief: as §2

[6] = tested on: VERPE; test: Post-emergence action against VERPE; format: in vivo, Veronica persica; settings: dosage 80 g/ha
Method in brief: as §1

[7] = tested on: ALOMY; test: Pre-emergence action against ALOMY; format: in vivo, Alopecurus myosuroides; settings: dosage 320 g/ha; pre-emergence; scored visually after 3 weeks vs untreated controls; 100% = plants have died, 0% = like control plants
Method in brief: as §2

[8] = tested on: MATIN; test: Pre-emergence action against MATIN; format: in vivo, Matricaria inodora; settings: Dosage 320 g/ha, pre-emergence
Method in brief: as §2

[9] = tested on: VERPE; test: Pre-emergence action against VERPE; format: in vivo, Veronica persica; settings: Dosage 320 g/ha, pre-emergence
Method in brief: as §2

[10] = tested on: DIGSA; test: Pre-emergence action against DIGSA; format: in vivo, Digitaria sanguinalis; settings: dosage 320 g/ha, scored visually after 3 weeks vs untreated controls
Method in brief: as §2

[11] = tested on: STEME; test: Pre-emergence action against STEME; format: in vivo, Stellaria media; settings: Dosage 320 g/ha, pre-emergence
Method in brief: as §2

[12] = tested on: AMARE; test: Pre-emergence action against AMARE; format: in vivo, Amaranthus retroflexus; settings: pre-emergence, dosage 320 g/ha, scored visually after 3 weeks vs untreated controls
Method in brief: as §2

[13] = tested on: ABUTH; test: Post-emergence action against ABUTH; format: in vivo, Abutilon theophrasti; settings: post-emergence, dosage 80 g/ha, visual assessment about 3 weeks after treatment vs untreated controls
Method in brief: as §1

[14] = tested on: AVEFA; test: Pre-emergence action against AVEFA; format: in vivo, Avena fatua; settings: dosage 320 g/ha, scored visually after 3 weeks vs untreated controls
Method in brief: as §2

[15] = tested on: AMARE; test: Post-emergence action against AMARE; format: in vivo, Amaranthus retroflexus; settings: post-emergence, dosage 80 g/ha, visual assessment about 3 weeks after treatment vs untreated controls
Method in brief: as §1

[16] = tested on: STEME; test: Post-emergence action against STEME; format: in vivo, Stellaria media; settings: post-emergence, dosage 80 g/ha
Method in brief: as §1

[17] = tested on: SETVI; test: Post-emergence action against SETVI; format: in vivo, Setaria viridis; settings: post-emergence, dosage 80 g/ha, visual assessment about 3 weeks after treatment vs untreated controls
Method in brief: as §1

[18] = tested on: ECHCG; test: Post-emergence action against ECHCG; format: in vivo, Echinochloa crus-galli; settings: post-emergence, dosage 80 g/ha, visual assessment about 3 weeks after treatment vs untreated controls
Method in brief: as §1

[19] = tested on: ECHCG; test: Pre-emergence action against ECHCG; format: in vivo, Echinochloa crus-galli; settings: pre-emergence, dosage 320 g/ha, scored visually after 3 weeks vs untreated controls
Method in brief: as §2

[20] = tested on: PHBPU; test: Post-emergence action against PHBPU; format: in vivo, Pharbitis purpurea; settings: post-emergence, dosage 80 g/ha
Method in brief: as §1

[21] = tested on: POLCO; test: Post-emergence action against POLCO; format: in vivo, Polygonum convolvulus; settings: post-emergence, dosage 80 g/ha
Method in brief: as §1

[22] = tested on: DIGSA; test: Post-emergence action against DIGSA; format: in vivo, Digitaria sanguinalis; settings: dosage 80 g/ha, visual assessment about 3 weeks after treatment vs untreated controls
Procedure: Seeds of monocotyledonous and dicotyledonous weed and crop plants are laid out in sandy loam soil in wood-fiber pots, covered with soil and cultivated in a greenhouse under good growth conditions. 2 to 3 weeks after sowing, the test plants are treated at the one-leaf stage. The compounds of the invention, formulated in the form of wettable powders (WP) or as emulsion concentrates (EC), are then sprayed onto the green parts of the plants in the form of an aqueous suspension or emulsion at a water application rate equating to […], with addition of 0.2% wetting agent. After the test plants have been left to stand in the greenhouse under optimal growth conditions for about 3 weeks, the action of the preparations is assessed visually in comparison to untreated controls (herbicidal action in percent (%): 100% activity=the plants have died, 0% activity=like control plants). […] At the same time, inventive compounds leave Gramineae crops such as barley, wheat, rye, millet/Sorghum, corn or rice virtually undamaged when applied post-emergence, even at high active ingredient dosages. In addition, some substances are also harmless to dicotyledonous crops such as soya, cotton, oilseed rape, sugar beet or potatoes. Some of the compounds according to the invention have high selectivity and are therefore suitable for controlling unwanted vegetation in agricultural crops by the post-emergence method. The data of Tables B18 to B34 below illustrate, in an exemplary manner, the […] herbicidal action of the compounds according to the invention, the herbicidal activity being stated in percent.

[23] = tested on: SETVI; test: Pre-emergence action against SETVI; format: in vivo, Setaria viridis; settings: pre-emergence, dosage 320 g/ha, scored visually after 3 weeks vs untreated controls
Method in brief: as §2

[24] = tested on: ALOMY; test: Post-emergence action against ALOMY; format: in vivo, Alopecurus myosuroides; settings: Dosage 80 g/ha, post-emergence
Method in brief: as §1

[25] = tested on: LOLRI; test: Pre-emergence action against LOLRI; format: in vivo, Lolium rigidum; settings: dosage 320 g/ha, scored visually after 3 weeks vs untreated controls
Method in brief: as §2

[26] = tested on: POLCO; test: Pre-emergence action against POLCO; format: in vivo, Polygonum convolvulus; settings: Dosage 320 g/ha, pre-emergence
Method in brief: as §2

Structure (SMILES)	Post-emergence action against VIOTR [1]	Post-emergence action against MATIN (herbicidal action in percent) [2]	Pre-emergence action against ABUTH (herbicidal activity) [3]	Pre-emergence action against PHBPU [4]	Pre-emergence action against VIOTR [5]	Post-emergence action against VERPE [6]	Pre-emergence action against ALOMY (herbicidal activity in percent) [7]	Pre-emergence action against MATIN [8]	Pre-emergence action against VERPE [9]	Pre-emergence action against DIGSA (herbicidal activity) [10]	Pre-emergence action against STEME [11]	Pre-emergence action against AMARE (herbicidal activity) [12]	Post-emergence action against ABUTH (herbicidal action in percent) [13]	Pre-emergence action against AVEFA (herbicidal activity) [14]	Post-emergence action against AMARE (herbicidal action in percent) [15]	Post-emergence action against STEME [16]	Post-emergence action against ECHCG (herbicidal action in percent) [18]	Post-emergence action against PHBPU [20]	Post-emergence action against DIGSA (herbicidal action in percent) [22]	SETVI (Table B8, pre-emergence herbicidal activity) [23]	also measured
CCn1nnnc1NC(=O)c1ccc(C(F)(F)F)c(C(=O)C2CCC2)c1SC [2-284]	80	90%	100%	80%	100%	80	90%	100%	100%	100%	100%	100%	100%	90%	100%	100	90%	90	90%	100%	Post-emergence action against SETVI (herbicidal action in percent) [17]: 100%; Pre-emergence action against ECHCG (herbicidal activity) [19]: 100%; Post-emergence action against POLCO [21]: 80
CCCC(=O)c1c(C(F)(F)F)ccc(C(=O)Nc2nnnn2CCC)c1C [3-16]	80	90%	100%	80%	90%	80	80%	100%	100%	90%	100%	100%	100%	80%	100%	90	90%	90	90%	100%	Post-emergence action against SETVI (herbicidal action in percent) [17]: 90%; Pre-emergence action against ECHCG (herbicidal activity) [19]: 90%; Post-emergence action against ALOMY [24]: 80%; Post-emergence action against POLCO [21]: 90
Cn1nnnc1NC(=O)c1ccc(C(F)(F)F)c(C(=O)C2CCC2)c1Cl [1-153]	80	100%	100%	80%	100%	80	90%	100%	100%	100%	100%	100%	100%	80%	100%	100	90%	90	90%	100%	Pre-emergence action against LOLRI (herbicidal activity) [25]: 90%; Post-emergence action against SETVI (herbicidal action in percent) [17]: 100%; Pre-emergence action against ECHCG (herbicidal activity) [19]: 90%; Post-emergence action against ALOMY [24]: 80%; Post-emergence action against POLCO [21]: 80
CCn1nnnc1NC(=O)c1ccc(C(F)(F)F)c(C(=O)C2CCC2)c1Cl [2-153]	90	100%	100%		100%		90%	100%	100%	100%	90%	100%	100%		90%	100	90%	80	100%	100%	Post-emergence action against POLCO [21]: 80
CCn1nnnc1NC(=O)c1ccc(C(F)(F)F)c(C(=O)CCl)c1C [2-22]	100	90%	100%	80%	100%	80	90%	100%	100%	100%	100%	100%	90%	100%	80%	90	90%	100	90%	100%	Pre-emergence action against LOLRI (herbicidal activity) [25]: 90%; Post-emergence action against SETVI (herbicidal action in percent) [17]: 80%; Pre-emergence action against ECHCG (herbicidal activity) [19]: 90%; Post-emergence action against ALOMY [24]: 80%; Pre-emergence action against POLCO [26]: 80%
